Four molecules from ChEMBL document CHEMBL3045411, “Efficacy and effects on yield of different fungicides for control of wet bubble disease of mushroom caused by the mycoparasite Mycogone perniciosa” (2010) can be followed below.

≈ marks a conversion by molar mass, not a printed value.

This assay concerns Mycogone perniciosa. In words: Antimicrobial activity against Mycogone perniciosa isolates assessed as inhibition of mycelial growth after 12 days. As to conditions: 288 h, read-out: ED50 (the source's name). The class given is functional.
Turning to `COC(=O)Nc1nc2ccccc2[nH]1` [CARBENDAZIM], the EC50 came to 0.065 µg/mL (≈ 0.34 µM).
The figure for `c1ccc2[nH]c(-c3cscn3)nc2c1` [THIABENDAZOLE] is 0.225 µg/mL (≈ 1.12 µM).
In the case of `CC(C)NC(=O)N1CC(=O)N(c2cc(Cl)cc(Cl)c2)C1=O` [IPRODIONE] it was 2.69 µg/mL (≈ 8.14 µM); in that of `COC(=O)NC(=S)Nc1ccccc1NC(=S)NC(=O)OC` [THIOPHANATE METHYL], 0.773 µg/mL (≈ 2.26 µM).
